Source: US4210639A, “5'-Deoxy-5'-(isobutylthio)-3-deazaadenosine, method of making same and its antiviral effect on Rous sarcoma virus and Gross murine leukemia virus” (The United States of America as represented by the …, priority 1978, dated 1980)
“Also recorded” adds a separate entry of the source. Like-named read-outs stand apart in the source and are kept apart here.

Columns and labels:
methyltransferases = conditions: AdoMet-utilizing methyltransferases; cited from earlier work
AdoHcy hydrolase [1] = target: T1, AdoHcy hydrolase (Bos taurus, UniProt Q3MHL4); assay: Inhibition of AdoHcy hydrolase from cow liver; assay type: biochemical; conditions: for IC50: read-out: I50
T1 construct: AdoHcy hydrolase from cow liver; from tissue; host or cells: cow liver
T1 sequence (Q3MHL4 2-432 limits assumed): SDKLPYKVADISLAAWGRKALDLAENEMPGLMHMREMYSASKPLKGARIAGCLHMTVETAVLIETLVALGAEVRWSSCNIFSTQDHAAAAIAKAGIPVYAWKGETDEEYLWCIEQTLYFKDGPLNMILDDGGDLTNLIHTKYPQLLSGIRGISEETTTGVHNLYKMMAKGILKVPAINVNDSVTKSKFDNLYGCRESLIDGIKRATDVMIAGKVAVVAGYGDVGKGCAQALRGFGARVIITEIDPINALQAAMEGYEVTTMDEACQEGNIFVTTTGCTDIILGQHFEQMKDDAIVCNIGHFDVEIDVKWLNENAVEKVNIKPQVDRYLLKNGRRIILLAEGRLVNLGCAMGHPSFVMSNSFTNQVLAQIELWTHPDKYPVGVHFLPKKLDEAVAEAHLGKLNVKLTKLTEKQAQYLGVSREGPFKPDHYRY

oncogenic virus = assay: Oncogenic virus-induced malignant transformation / viral replication, general statements; assay type: cell-based
RSV-BH = assay: Focus formation (oncogenic transformation) by RSV-BH in chick embryo cells; assay type: cell-based; conditions: for inhibition at 100 µM / inhibition at 30 µM: Gallus gallus
Experimental: Additionally, the ability of these compounds to inhibit the oncogenic transformation of chick embryo cells induced by RSV-BH was examined.
*Compounds were added 18 h after infection and foci were counted 7 days

chick embryo cells = assay: Effects on host chick embryo cells; assay type: cell-based; conditions: 0.1 mM
mouse embryo cells = assay: Multiplication/cytotoxicity of mouse embryo host cells after 4 days exposure; assay type: cell-based, Swiss mouse; conditions: 30 to 100 μM
Experimental: (§1) Each point represents the mean number of UV-XC plaques per culture (triplicate assays)± the standarad deviation. The drug was dissolved in DMSO at the time of virus inoculation and was present throughout the incubation period. (B) Effect of treatment on the multiplication of host cells after 4 days exposure to drug. Each point represents the mean number of viable mouse embryo cells per culture ± the standard deviation. The initial number of cells plated was 3.5×10^5 cells.
(§2) The ability of 5'-deoxy-5'-(isobutylthio)-3-deazaadenosine to inhibit replication of Gross MLV in mouse embryo cells was tested. […] The selectivity ratio (i.e., the highest noncytotoxic concentration of drug over the lowest effective concentration of drug) was about 10.

AdoHcy hydrolase [2] = assay: Hydrolysis of the compound by AdoHcy hydrolase; assay type: biochemical
Gross MLV = assay: Replication of Gross MLV in mouse embryo cells (UV-XC plaque assay); assay type: cell-based, Swiss mouse
Experimental: as §1, §2

cells = assay: Tolerance by cells; assay type: cell-based
[3] = 0.03 mM, added 18 h after infection, counted 7 days later
[4] = 0.1 mM, added 18 h after infection, counted 7 days later
[5] = 168 h, read-out: Reduction of focus formation in RSV-BH infected cells
[6] = 0.1 mM, added 18 h after infection, counted 7 days later, read-out: % Inhibition of focus formation
[7] = AdoHcy hydrolase from cow liver
[8] = non-competitive inhibition of AdoHcy hydrolase

With `Nc1ncnc2c1ncn2[C@@H]1O[C@H](CSCC[C@H](N)C(=O)O)[C@@H](O)[C@H]1O` [Adenosylhomocysteine, S-adenosyl-L-homocysteine] as the compound, how does the Inhibition of methyltransferases (methyltransferases) read?
Its Inhibition of methyltransferases is “inhibit competitively most of the methyltransferases; also recorded: competitive inhibitor”.

With `Nc1nccc2c1ncn2[C@@H]1O[C@H](CO)[C@@H](O)[C@H]1O` [3-Deazaadenosine, 4-amino-1-β-D-ribofuranosyl [4,5-c]pyridine] as the compound, how does the “Inhibition of AdoHcy hydrolase (in words)” value (AdoHcy hydrolase [1]) read?
Its value is “most potent inhibitor of AdoHcy hydrolase”.

And the “Type of inhibition of AdoHcy hydrolase” value (AdoHcy hydrolase [1])?
The value was “competitive inhibitor”.

And the IC50 (AdoHcy hydrolase [1]; AdoHcy hydrolase)?
The IC50 was 8 µM.

What about the Ki (AdoHcy hydrolase [1]; competitive inhibition of AdoHcy hydrolase) of the same compound?
The Ki was 3 µM.

And the “Potency relative to 5'-deoxy-5'-S-isobutyl-adenosine as inhibitor of AdoHcy hydrolase” value (AdoHcy hydrolase [1]; nearly 100-fold more potent than 5'-deoxy-5'-S-isobutyl-adenosine)?
Its value is ~100 fold.

And the “Ability to inhibit viral replication, compared between the two compounds” value (oncogenic virus)?
Its value is “almost equal”.

And the “Effect on oncogenic transformation induced by Rous sarcoma virus and on its infectivity” value (RSV-BH)?
Its value is “powerful, although reversible, effect”.

What about the “Sensitivity to drug by phase of virus replication” value (RSV-BH) of the same compound?
The value was “maximal during the phase of virus replication which required the synthesis of viral mRNA and protein”.

What about the “No. of Foci” value (RSV-BH; [3]) of the same compound?
The value was 106.

And the “No. of Foci” value (RSV-BH; [4])?
The value was 17.

What about the inhibition at 100 µM (RSV-BH; [5]) of the same compound?
The inhibition at 100 µM was 95%.

What about the inhibition at 30 µM (RSV-BH; [3]) of the same compound?
Its inhibition at 30 µM is 68%.

And the inhibition at 100 µM (RSV-BH; [6])?
Its inhibition at 100 µM is 95%.

And the “Effects on the host cells” value (chick embryo cells)?
Its value is “without noticeable effects on the host cells”.

With `CC(C)CSC[C@H]1O[C@@H](n2cnc3c(N)nccc32)[C@H](O)[C@@H]1O` [5'-Deoxy-5'-(isobutylthio)-3-deazaadenosine] as the compound, how does the Cytotoxicity (mouse embryo cells) read?
Its Cytotoxicity is “cytotoxicity was observed”.

What about the “Inhibition of AdoHcy hydrolase (in words)” value (AdoHcy hydrolase [1]) of the same compound?
The value was “potent inhibitors of AdoHcy hydrolase; also recorded: good activity”.

And the “Type of inhibition of AdoHcy hydrolase” value (AdoHcy hydrolase [1])?
Its value is “non-competitive inhibitor”.

And the IC50 (AdoHcy hydrolase [1]; [7])?
The IC50 was 280 µM.

What about the “Type of inhibition of AdoHcy hydrolase” value (AdoHcy hydrolase [1]; listed as 5'-deoxy-(isobutylthio)-3-deazaadenosine) of the same compound?
Its value is “non-competitive”.

What about the “Ki relative to the Ki of 3-deazaadenosine” value (AdoHcy hydrolase [1]; times higher than Ki of 3-deazaadenosine) of the same compound?
Its value is “about 100 times”.

What about the “Hydrolysis by AdoHcy hydrolase” value (AdoHcy hydrolase [2]) of the same compound?
The value was “not to be hydrolyzed”.

And the inhibition at 3 µM (Gross MLV; 3 μM, Gross MLV in mouse embryo cells, read-out: Inhibition of plaque formation in the indicator XC cells)?
The inhibition at 3 µM was 85%.

What about the “Inhibition of virus replication (in words)” value (Gross MLV; 30 to 100 μM, Gross MLV in mouse embryo cells) of the same compound?
The value was “Complete inhibition”.

And the “Selectivity ratio (highest noncytotoxic concentration over lowest effective concentration)” value (Gross MLV; Gross MLV in mouse embryo cells)?
The value was “about 10”.

What about the “Antiviral activity against Gross murine leukemia virus (in words)” value (Gross MLV; mouse embryo cells) of the same compound?
Its value is “good antiviral; also recorded: has shown activity”.

What about the “Ability to inhibit viral replication, compared between the two compounds” value (oncogenic virus) of the same compound?
The value was “almost equal”.

What about the “Reversal of malignant transformation induced by oncogenic virus” value (oncogenic virus) of the same compound?
The value was “will reverse the malignant transformation”.

What about the “Effect on focus formation / RSV activity (in words)” value (RSV-BH) of the same compound?
Its value is “good antiviral; also recorded: just as effective as 3-deazaadenosine itself; also recorded: has shown activity”.

What about the “No. of Foci” value (RSV-BH; [3]) of the same compound?
The value was 93.

What about the “No. of Foci” value (RSV-BH; [4]) of the same compound?
Its value is 3.

What about the inhibition at 100 µM (RSV-BH; [5]) of the same compound?
The inhibition at 100 µM was 95%.

What about the inhibition at 30 µM (RSV-BH; [3]) of the same compound?
The inhibition at 30 µM was 72%.

And the inhibition at 100 µM (RSV-BH; [6])?
Its inhibition at 100 µM is 99%.

And the “Effects on the host cells” value (chick embryo cells)?
The value was “without noticeable effects on the host cells”.

And the Tolerance by cells (cells)?
The Tolerance by cells was “well tolerated by cells”.

For `Nc1nccc2c1ncn2[C@@H]1O[C@H](CSCC[C@H](N)C(=O)O)[C@@H](O)[C@H]1O` [3-Deazaadenosylhomocysteine], which “Effect on focus formation / RSV activity (in words)” value (RSV-BH) is on record?
Its value is “Neither 3-deaza-AdoHcy nor 9-[5'-deoxy-5'-(methylthio)- β-D-arabinofuranosyl]adenine had any significant effect on focus formation”.

What about the “No. of Foci” value (RSV-BH; [3]) of the same compound?
Its value is 330.

What about the “No. of Foci” value (RSV-BH; [4]) of the same compound?
Its value is 276.

And the inhibition at 30 µM (RSV-BH; [3])?
The inhibition at 30 µM was 0%.

What about the inhibition at 100 µM (RSV-BH; [6]) of the same compound?
Its inhibition at 100 µM is 16%.

For `CSC[C@H]1O[C@@H](n2cnc3c(N)ncnc32)[C@@H](O)[C@@H]1O` [9-[5'-deoxy-5'-(methylthio)-β-D-arabinofuranosyl]-adenine], which “Type of inhibition of AdoHcy hydrolase” value (AdoHcy hydrolase [1]) is on record?
Its value is “non-competitive”.

What about the IC50 (AdoHcy hydrolase [1]; [7]) of the same compound?
Its IC50 is 430 µM.

What about the Ki (AdoHcy hydrolase [1]; [8]) of the same compound?
Its Ki is 500 µM.

What about the “Effect on focus formation / RSV activity (in words)” value (RSV-BH) of the same compound?
The value was “Neither 3-deaza-AdoHcy nor 9-[5'-deoxy-5'-(methylthio)- β-D-arabinofuranosyl]adenine had any significant effect on focus formation”.

What about the “No. of Foci” value (RSV-BH; [3]) of the same compound?
The value was 274.

What about the “No. of Foci” value (RSV-BH; [4]) of the same compound?
The value was 298.

What about the inhibition at 30 µM (RSV-BH; [3]) of the same compound?
The inhibition at 30 µM was 17%.

And the inhibition at 100 µM (RSV-BH; [6])?
Its inhibition at 100 µM is 9%.

Which results are given for `CC(C)CSC[C@H]1O[C@@H](n2cnc3c(N)ncnc32)[C@H](O)[C@@H]1O` [5'-deoxy-5'-S-isobutyladenosine]?
Inhibition of AdoHcy hydrolase (in words) (AdoHcy hydrolase [1]): potent inhibitors of AdoHcy hydrolase; IC50 (AdoHcy hydrolase [1]; [7]): > 1000 µM; Tolerance by cells (cells): well tolerated by cells

Which results are given for `Nc1ncnc2c1ncn2[C@@H]1O[C@H](CNCCC(N)C(=O)O)[C@@H](O)[C@H]1O` (stereo partly drawn) [Nγ-adenosyl-α,γ-diamino-butyric acid]?
Type of inhibition of AdoHcy hydrolase (AdoHcy hydrolase [1]): non-competitive; IC50 (AdoHcy hydrolase [1]; [7]): 140 µM; Ki (AdoHcy hydrolase [1]; [8]): 300 µM
